Measurements as given in ChEMBL document CHEMBL4002601, “A triple exon-skipping luciferase reporter assay identifies a new CLK inhibitor pharmacophore” (Bioorg Med Chem Lett, 2017).

Biological target: Cyclin-dependent kinase 1/cyclin B1 (Homo sapiens, UniProt P06493)
Assay: Inhibition of human CDK1/cyclinB using Histone H1 as substrate in presence of [gamma-33P]ATP after 40 mins by scintillation counter method
Format: protein-complex assay

Sequence of Cyclin-dependent kinase 1/cyclin B1 (P06493 whole entry): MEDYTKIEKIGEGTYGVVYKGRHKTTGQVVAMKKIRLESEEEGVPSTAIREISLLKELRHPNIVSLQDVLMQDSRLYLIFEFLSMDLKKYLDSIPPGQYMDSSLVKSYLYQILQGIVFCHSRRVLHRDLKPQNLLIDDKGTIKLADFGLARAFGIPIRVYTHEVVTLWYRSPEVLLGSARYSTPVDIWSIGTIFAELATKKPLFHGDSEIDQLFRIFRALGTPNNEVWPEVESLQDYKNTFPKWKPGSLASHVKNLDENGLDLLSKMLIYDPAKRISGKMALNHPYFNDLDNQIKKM
Sequence of Cyclin-dependent kinase 1/cyclin B1 (P14635 whole entry, further chain): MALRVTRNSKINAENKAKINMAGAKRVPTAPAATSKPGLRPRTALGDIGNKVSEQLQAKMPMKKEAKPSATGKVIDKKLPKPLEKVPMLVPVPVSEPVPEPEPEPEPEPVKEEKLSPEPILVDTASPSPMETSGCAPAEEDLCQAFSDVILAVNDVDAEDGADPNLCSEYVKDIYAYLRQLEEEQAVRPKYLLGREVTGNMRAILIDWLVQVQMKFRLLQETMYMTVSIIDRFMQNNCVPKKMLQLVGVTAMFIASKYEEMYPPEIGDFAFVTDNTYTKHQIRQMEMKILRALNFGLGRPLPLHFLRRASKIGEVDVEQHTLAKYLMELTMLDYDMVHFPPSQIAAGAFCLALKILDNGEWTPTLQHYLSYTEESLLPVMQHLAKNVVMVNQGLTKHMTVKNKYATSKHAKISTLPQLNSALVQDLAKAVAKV

| Compound | IC50 [nM] |
| --- | --- |
| CC(C)n1cnc2c(Nc3cccc(Cl)c3)nc(N[C@H]3CCCC[C@@H]3N)nc21 | > 1000 |
| CC(C)n1cnc2c(Nc3cccc(Cl)c3)nc(N[C@@H]3CCCC[C@@H]3N)nc21 | 674 |
